System: platelet aggregation provoked by PAF (washed rabbit platelets)
Assay: Anti-PAF activity (inhibition of PAF-provoked platelet aggregation in washed platelets, nephelometry)
Assay type: cell-based
Conditions: Oryctolagus cuniculus, 20 μM, PAF 30 ng/ml, read-out: Inhibition rate PAF
Description: (a) Preparation of washed platelet suspension (hereinafter referred to as W.P.)
(§1) A blood sample was collected from a carotid artery of a male rabbit weighing 2.5 kg, while adding thereto one volume of a 3.13% sodium citrate solution per 9 volumes of blood as a […]. The resulting blood was centrifuged at 200 xg for 20 minutes to separate out platelet-rich plasma (hereinafter referred to as PRP). This PRP was centrifuged at 1,000 xg for 15 minutes to separate the platelets from the plasma. The deposited platelets were washed twice with a Tyrode solution (Tyrode-Ca^++), from which Ca^++ had been removed and to which 1% bovine serum albumin (BSA) had been added, such that 9×10^5 platelets per μl were finally suspended in the Tyrode solution.
(b) Preparation of specimens and PAF
Specimens were dissolved or suspended in a physiological saline. PAF was dissolved in a Tyrode solution containing 1% BSA. PAF synthesized from D-mannitol in accordance with a method disclosed by J. J. Godfroid et al was used (FEBS Letters 116, 161-164, 1980).
(c) Measurement of platelet aggregation
(§2) Platelet aggregation measurements were conducted according to nephelometry described by Born et al using a platelet aggregation meter manufactured by Schenko Co. Specimen solutions having various concentrations of test compounds and 0.25 ml of W.P. were subjected to preincubation at 37° C. for 4 minutes, and then PAF was added thereto to give a final PAF concentration of 30 ng/ml to provoke platelet aggregation. The transmittance of the W.P. before aggregation, that is, before the addition of the aggregation provoking agent, was rated as 0, and the transmittance of the Tyrode solution was rated as 100. After the addition of the PAF solution to the W.P., light transmittance increased as aggregation proceeded. The value of the light transmittance at the time when the aggregation had proceeded to a maximum was rated as the maximum aggregation (hereinafter referred to as MA) which was used as an index of the degree of aggregation.
(§3) The inhibition rate was calculated according to the following equation. The aggregation in a W.P.-containing physiological saline solution free of test compound, as a control, was rated as 0% aggregation inhibition. [formula] wherein M.A. Control: maximum aggregation after platelet aggregation in PAF was provoked, after the addition of physiological saline.
M.A. Sample: maximum aggregation after platelet aggregation in PAF was provoked, after the addition of the test compound.

First: CC(C)CCCC(C)Cc1ccc(C(=O)NCCO)cc1 (centres unmarked)
Second: CC(C)CCCC(C)CCCC(C)Cc1ccc(C(=O)NCCN(C)C)cc1 (centres unmarked)
The inhibition at 20 µM of the first is lower: 57.8% for the first, 80.6% for the second.

Compared with `CC(C)CCCC(C)Cc1ccc(C(=O)N(CCN(C)C)CCN(C)C)cc1` (centres unmarked), `CC(C)CCCC(C)CCCC(C)Cc1ccc(C(=O)N(CCN(C)C)CCN(C)C)cc1` (centres unmarked) is higher in inhibition at 20 µM: 59.4% for the first, 74.7% for the second.

Compared with `CC(C)CCCC(C)CCCc1ccc(C(C)CC(=O)N(CCN(C)C)CCN(C)C)cc1` (centres unmarked), `CC(=CC(=O)N(CCN(C)C)CCN(C)C)c1ccc(CCCC(C)CCCC(C)C)cc1` (centres unmarked) is higher in inhibition at 20 µM: 57.8% for the first, 63.2% for the second.

Going from `CC(=CC(=O)NCCO)c1ccc(CCCC(C)CCCC(C)C)cc1` (centres unmarked) to `CC(C)CCCC(C)CCCC(C)Cc1ccc(C(=O)N(CCN(C)C)CCN(C)C)c(F)c1` (centres unmarked), the inhibition at 20 µM rises from 55.9% to 64.9%.

Compared with `CC(C)CCCC(C)CCCC(C)Cc1ccc(C(=O)N(CCN(C)C)CCN(C)C)c2ccccc12` (centres unmarked), `CC(C)CCCC(C)CCCC(C)Cc1cccc2c(C(=O)N(CCN(C)C)CCN(C)C)cccc12` (centres unmarked) is lower in inhibition at 20 µM: 59.3% for the first, 58.3% for the second.

First: CC(C)CCCC(C)CCCC(C)Cc1ccc(C(=O)N(CCN(C)C)CCN(C)C)c2c1CCCC2 (centres unmarked)
Second: CC(C)=CCC/C(C)=C/CC/C(C)=C/c1ccc(C(=O)N(CCN(C)C)CCN(C)C)cc1
The inhibition at 20 µM of the first is lower: 50.5% for the first, 93.6% for the second.

Compared with `CC(C)=CCC/C(C)=C/CC/C(C)=C/CC/C(C)=C/CNC(=O)CN(C)C`, `CC(C)=CCC/C(C)=C/CC/C(C)=C/CC/C(C)=C/CNC(=O)CCN` is lower in inhibition at 20 µM: 60.4% for the first, 59.1% for the second.

First: CC(C)=CCC/C(C)=C/CC/C(C)=C/CC/C(C)=C/CNCCN(C)C
Second: CC(C)=CCC/C(C)=C/CC/C(C)=C/CC/C(C)=C/C(=O)NCCN(C)C
The inhibition at 20 µM of the first is lower: 37.1% for the first, 74.3% for the second.

First: CC(C)=CCC/C(C)=C/CC/C(C)=C/CC/C(C)=C/C(=O)N(CCN(C)C)CCN(C)C
Second: CC(C)=CCC/C(C)=C/CC/C(C)=C/c1ccc(C(=O)NCCN(C)C)cc1
The inhibition at 20 µM of the first is higher: 88.7% for the first, 73.5% for the second.

Same assay, conditions: Oryctolagus cuniculus, 50 μM, PAF 30 ng/ml, read-out: Inhibition rate PAF

First: CC(C)=CCC/C(C)=C/CC/C(C)=C/CC/C(C)=C/C(=O)N(CCO)CCO
Second: CC(C)=CCC/C(C)=C/CC/C(C)=C/CC/C(C)=C/CC/C(C)=C/C(=O)NCCO
The inhibition at 50 µM of the first is higher: 76.4% for the first, 22.7% for the second.

Going from `CC(C)=CCC/C(C)=C/CCC(C)CC(=O)NCCO` (centres unmarked) to `CC(C)=CCC/C(C)=C/CC/C(C)=C/C(=O)NCCO`, the inhibition at 50 µM falls from 31.4% to 18.7%.

Compared with `CC(C)=CCC/C(C)=C/CC/C(C)=C/CC/C(C)=C/C(=O)N1CCCC(O)C1` (centres unmarked), `CC(C)=CCC/C(C)=C/CC/C(C)=C/CC/C(C)=C/C(=O)N1CCCCC1CO` (centres unmarked) is higher in inhibition at 50 µM: 27.4% for the first, 34.4% for the second.

First: CCN1CCCC(NC(=O)/C=C(\C)CC/C=C(\C)CC/C=C(\C)CCC=C(C)C)C1 (centres unmarked)
Second: CC(=CC(=O)N(CCN(C)C)CCN(C)C)c1ccc(CCCC(C)CCCC(C)C)cc1 (centres unmarked)
The inhibition at 50 µM of the first is lower: 80.3% for the first, 82.2% for the second.

`CC(C)CCCC(C)CCCc1ccc(C(C)CC(=O)N(CCN(C)C)CCN(C)C)cc1` (centres unmarked) gave an inhibition at 50 µM of 82.6%.

System: platelet aggregation provoked by bovine thrombin (washed rabbit platelets)
Assay: Antithrombic activity (inhibition of thrombin-provoked platelet aggregation)
Assay type: cell-based
Conditions: Oryctolagus cuniculus, 20 μM, bovine thrombin 0.2 units/ml, read-out: Inhibition rate Thrombin (%)
Description: as §1, §2, §3
(2) Antithrombic activity
The measurement of the antithrombic activity was conducted in the same manner as described above, except that bovine thrombin at a final concentration of 0.2 units/ml was used as the platelet aggregation provoking agent in place of PAF.

Compared with `CC(C)=CCC/C(C)=C/CC/C(C)=C/CC/C(C)=C/C(=O)N(CCN(C)C)CCN(C)C`, `CC(C)=CCC/C(C)=C/CC/C(C)=C/c1ccc(C(=O)N(CCN(C)C)CCN(C)C)cc1` is lower in inhibition at 20 µM: 76.4% for the first, 70.6% for the second.

Going from `CC(C)=CCC/C(C)=C/CC/C(C)=C/c1ccc(C(=O)NCCN(C)C)cc1` to `CC(C)CCCC(C)CCCC(C)Cc1ccc(C(=O)NCCN(C)C)cc1` (centres unmarked), the inhibition at 20 µM rises from 34.2% to 70.3%.

Molecule `CC(C)CCCC(C)CCCC(C)Cc1ccc(C(=O)N(CCN(C)C)CCN(C)C)cc1` (centres unmarked) has an inhibition at 20 µM of 78.8%.

Same assay, conditions: Oryctolagus cuniculus, 50 μM, bovine thrombin 0.2 units/ml, read-out: Inhibition rate Thrombin (%)

First: CC(C)=CCC/C(C)=C/CC/C(C)=C/CC/C(C)=C/C(=O)N1CCCC(O)C1 (centres unmarked)
Second: CC(C)=CCC/C(C)=C/CC/C(C)=C/CC/C(C)=C/C(=O)N1CCCCC1CO (centres unmarked)
The inhibition at 50 µM of the first is lower: 19.2% for the first, 27.4% for the second.

For `CCN1CCCC(NC(=O)/C=C(\C)CC/C=C(\C)CC/C=C(\C)CCC=C(C)C)C1` (centres unmarked), the inhibition at 50 µM was 24.2%.

From patent US4742058A, “Polyprenyl compound, process for the production thereof and drug containing the same” (Eisai Co., Ltd., priority 1982, dated 1988)
